Laboratory results taken from US4555572A, “Pyrazolo[3,4,5-kl]acridine compositions and methods for their production and use” (Warner-Lambert Company, priority 1984, dated 1985).
pIC50: −log10 of the molar value. Structures can show the parent of a compound that is named as a salt. Where two headings read alike, the source gives them in different places.

Columns and labels:
HCT-8 cells = test: in vitro proliferating human colon adenocarcinoma (HCA) cell screen, HCT-8; assay type: cell-based
Method: (a) One test protocol is the in vitro proliferating human colon adenocarcinoma (HCA) cell screen. In this test, HCT-8 cells (HCA cell line received from Yale University) are trypsinized using trypsin-EDTA. A single cell suspension is achieved by passing the cells through a 26 gauge needle with a 20-cc syringe. A cell suspension is prepared using RPMI 1640+10% FCS+50 μg/ml gentamicin sulfate with a cell concentration is approximately 30,000 cells/ml. The cell suspension is dispensed in Linbro 24-well plates; 1 ml/well. The plates are incubated for approximately 48 hours at 37° C. in a 5% CO2 atmosphere. At this time test compounds are added in the appropriate concentration. Five μl of the 200 μg/ml stock solution is added to each well in a primary test. […] of the appropriate dilution is added to each well for a titration test. The plates are reincubated an additional 60 to 65 hours at 37° C. in a 5% CO 2 atmosphere. The cells are lysed using a mix of cationic surfactant, glacial acetic acid, and sodium chloride. Two ml of the lysed cell suspension from each well is added to 8 ml of diluent. The number of nuclei is determined using a Coulter counter (ZBI model), and a percent growth for each drug concentration is calculated. From this, and ID50 (molar concentration of compound that results in 50% inhibition of growth) is determined.

[1] = tested on: lymphocytic leukemia P388; test: in vivo lymphocytic leukemia P388 test; parameters: species or system CD2 F1 mice; conditions: Mus musculus, P388, ip, 120 h
Method: Another test protocol is the in vivo lymphocytic leukemia P388 test. The animals used are either male or female CD2 F1 mice, six or seven animals per test group. The tumor transplant is by intraperitoneal injection of dilute ascitic fluid containing cells of lymphocytic leukemia P388. The test compounds are administered intraperitoneally once daily for five consecutive days at various doses following tumor inoculation. The animals are weighed and survivors are recorded on a regular basis for 30 days. A compound is designated "toxic" if, at a given dose, all animals died prior to four days after the first injection of drug. A ratio of survival time for treated (T)/control (C) animals is calculated. A criterion for efficacy is a ratio T/C times 100 greater than or equal to 125. See Cancer Chemotherapy Reports, Part 3, 3, 1 (1972) for a comprehensive discussion of the protocol.

Escherichia coli = test: in vitro antibacterial (ABMF) microdilution susceptibility test; assay type: cell-based; conditions: read-out: ABMF Test M.I.C. E. coli
Description: (§1) (d) Still another test protocol is the in vitro antibacterial (ABMF) test which is a recognized standard microdilution susceptibility procedure in Mueller-Hinton broth against gram-positive and gram-negative bacterial test organisms. The procedure is a modification of a state-of-the-art procedure reported in Manual of Clinical Microbiology, Lennette, E. H., ed., by Barry, A. L. and C. Thornsberry at pages 463-474 and by Gavan, T. L. and A. L. Barry at pages 459-462, American Society for Microbiology, Washington, 1980.
(§2) In the test, a given bacterial culture is used to inoculate individaul test wells of microdilution trays containing growth medium and test compound, the latter in a microdilution series: 1000, 333, 111, 37, 12, 4, 1.4, and 0.46 micrograms per milliliter. […] For convenience, values are reported for Escherichia coli, Branhamella catarrhalis, Alcaligenes viscolactis, Streptococcus pneumoniae, and Bacillus cereus

Alcaligenes viscolactis = test: as above; assay type: cell-based; conditions: read-out: ABMF Test M.I.C. A. visc.
Description: as §1, §2

Bacillus cereus = test: as above; assay type: cell-based; conditions: read-out: ABMF Test M.I.C. B. cere.
Description: as §1, §2

Branhamella catarrhalis = test: as above; assay type: cell-based; conditions: Moraxella catarrhalis, read-out: ABMF Test M.I.C. B. cata.
Description: as §1, §2

Streptococcus pneumoniae = test: as above; assay type: cell-based; conditions: read-out: ABMF Test M.I.C. S. pneu.
Description: as §1, §2

[2] = intraperitoneally once daily for five days, read-out: P388 in vivo T/C × 100
[3] = Mueller-Hinton broth, 37° C., 16-24 hours
[4] = HCT-8 cells, 60 to 65 hours, ED50, read-out: HCA ED50 Avg.
[5] = 6.25 mg/kg, intraperitoneally once daily for five days, read-out: P388 in vivo T/C × 100
[6] = 3.12 mg/kg, intraperitoneally once daily for five days, read-out: P388 in vivo T/C × 100
[7] = 1.56 mg/kg, intraperitoneally once daily for five days, read-out: P388 in vivo T/C × 100

Row | Compound | response vs control in vivo at 12.5 mg/kg [1, 2] | MIC (Escherichia coli; [3]) | MIC (Alcaligenes viscolactis; [3]) | MIC (Bacillus cereus; [3]) | MIC (Branhamella catarrhalis; [3]) | MIC (Streptococcus pneumoniae; [3]) | pIC50 (HCT-8 cells; [4]) | response vs control in vivo at 6.25 mg/kg [1, 5] | further results
1 | CCN(CC)CCn1nc2c3c(c([N+](=O)[O-])ccc31)Nc1ccc(OCc3ccccc3)cc1-2 [Example 11, monomethanesulfonate] | 127% |  |  |  |  |  |  |  | pIC50 (HCT-8 cells; HCT-8 cells, 60 to 65 hours, molar concentration for 50% inhibition of growth, read-out: HCA in vitro ID50 avg.): 5.64; response vs control in vivo at 25 mg/kg ([1]; 25 mg/kg, intraperitoneally once daily for five days, read-out: P388 in vivo T/C × 100): 141%; response vs control in vivo at 50 mg/kg ([1]; 50 mg/kg, intraperitoneally once daily for five days, read-out: P388 in vivo T/C × 100): 194%
2 | CCN(CC)CCn1nc2c3c(c([N+](=O)[O-])ccc31)Nc1c(OC)cccc1-2.CS(=O)(=O)O [Example 17, N,N-Diethyl-7-methoxy-5-nitropyrazolo[3,4,5-kl]acridine-2(6H)-ethanamine, methanesulfonate (1:1)] | 106% | < 0.46 µg/mL | < 0.46 µg/mL | < 0.46 µg/mL | < 0.46 µg/mL | < 0.46 µg/mL | 6.29 |  | 
3 | CCOc1ccc2c(c1)-c1nn(CCN(CC)CC)c3ccc([N+](=O)[O-])c(c13)N2.CS(=O)(=O)O [Example 18, N,N-Diethyl-9-ethoxy-5-nitropyrazolo[3,4,5-kl]acridine-2(6H)-ethanamine, methanesulfonate (1:1)] | 201% | 12.3 µg/mL | < 0.46 µg/mL | 12.3 µg/mL | 1.4 µg/mL | < 0.46 µg/mL | 6.96 | 169% | response vs control in vivo at 3.13 mg/kg ([1]; 3.13 mg/kg, intraperitoneally once daily for five days, read-out: P388 in vivo T/C × 100): 135%
4 | CCCOc1ccc2c(c1)-c1nn(CCN(CC)CC)c3ccc([N+](=O)[O-])c(c13)N2.CS(=O)(=O)O [Example 19, N,N-Diethyl-5-nitro-9-propoxypyrazolo[3,4,5-kl]acridine-2(6H)-ethanamine, methanesulfonate salt (1:1)] |  | 1000 µg/mL | < 0.46 µg/mL | 12.3 µg/mL | < 0.46 µg/mL | < 0.46 µg/mL | 6.51 | 167% | response vs control in vivo at 3.12 mg/kg [1, 6]: 137%
5 | CCCCOc1ccc2c(c1)-c1nn(CCN(CC)CC)c3ccc([N+](=O)[O-])c(c13)N2 [Example 20, 9-Butoxy-N,N-diethyl-5-nitropyrazolo[3,4,5-kl]acridine-2(6H)-ethanamine, methanesulfonate] |  |  |  |  |  |  | 7.14 | 160% | response vs control in vivo at 1.56 mg/kg [1, 7]: 124%; response vs control in vivo at 3.12 mg/kg [1, 6]: 125%
6 | CCN(CC)CCn1nc2c3c(c([N+](=O)[O-])ccc31)Nc1c(OC)cc(OC)cc1-2 [Example 23, N,N-Diethyl-7,9-dimethoxy-5-nitropyrazolo[3,4,5-kl]acridine-2(6H)-ethanamine, methanesulfonate, hydrate (1:1)] |  | 37 µg/mL | < 0.46 µg/mL | < 0.46 µg/mL | 1.4 µg/mL | < 0.46 µg/mL | 6.31 |  | 
7 | CCN(CC)CCn1nc2c3c(c([N+](=O)[O-])ccc31)Nc1ccc(O[Si](C)(C)C(C)(C)C)cc1-2 [Example 26, 9-[[(1,1-Dimethylethyl)dimethylsilyl]oxy]-N,N-diethyl-5-nitropyrazolo[3,4,5-kl]acridine-2(6H)-ethanamine, methanesulfonate (salt) (1:1)] |  |  |  |  |  |  |  |  | MIC (Escherichia coli): > 1000 µg/mL; MIC (Alcaligenes viscolactis): 37 µg/mL; MIC (Bacillus cereus): > 1000 µg/mL; MIC (Branhamella catarrhalis): > 1000 µg/mL; MIC (Streptococcus pneumoniae): > 1000 µg/mL; pIC50 (HCT-8 cells; HCT-8, read-out: HCA ED50 Avg.): 8.19; response vs control in vivo at 1.56 mg/kg ([1]; read-out: P388 in vivo T/C × 100, 1.56 mg/kg, intraperitoneally once daily for five days): 154%; response vs control in vivo at 3.12 mg/kg ([1]; read-out: P388 in vivo T/C × 100, 3.12 mg/kg, intraperitoneally once daily for five days): 158%; response vs control in vivo at 6.25 mg/kg ([1]; read-out: P388 in vivo T/C × 100, 6.25 mg/kg, intraperitoneally once daily for five days): 211%
8 | CCN(CC)CCn1nc2c3c(c([N+](=O)[O-])ccc31)Nc1ccc(OC(C)=O)cc1-2 [Example 27, 2-[2-(Diethylamino)ethyl]-2,6-dihydro-5-nitropyrazolo[3,4,5-kl]acridin-9-ol, acetate (ester), methanesulfonate (salt) (1:1)] |  | 12.3 µg/mL | 0.46 µg/mL | 4.1 µg/mL | 0.46 µg/mL | 1.4 µg/mL | 8.28 | 165% | response vs control in vivo at 1.56 mg/kg [1, 7]: 158%; response vs control in vivo at 3.12 mg/kg [1, 6]: 218%
9 | CCCC(=O)Oc1ccc2c(c1)-c1nn(CCN(CC)CC)c3ccc([N+](=O)[O-])c(c13)N2 [Example 29, [2-[2-(Diethylamino)ethyl]-2,6-dihydro-5-nitropyrazolo[3,4,5-kl]acridin-9-yl]butanoic ester, methanesulfonate (salt) (1:1)] |  | 333 µg/mL | < 0.46 µg/mL | 4.1 µg/mL | 1.4 µg/mL | < 0.46 µg/mL |  | 252% | 
10 | CCN(CC)CCn1nc2c3c(c([N+](=O)[O-])ccc31)Nc1ccc(C)cc1-2 [Example 34, N,N-Diethyl-9-methyl-5-nitropyrazolo[3,4,5-kl]acridine-2(6H)-ethanamine, methanesulfonate (salt) (1:1)] |  | 12.3 µg/mL | < 0.46 µg/mL | < 0.46 µg/mL | < 0.46 µg/mL | < 0.46 µg/mL | 6.10 |  | 
11 | CC[N+]([O-])(CC)CCn1nc2c3c(c([N+](=O)[O-])ccc31)Nc1ccccc1-2 [Example 35, N,N-Diethyl-5-nitropyrazolo[3,4,5-kl]acridine-2(6H)-ethanamine, N-oxide, methanesulfonate salt (5:6), hydrate (4:3)] | 167% | 12.3 µg/mL | 4.1 µg/mL | > 1000 µg/mL | 12.3 µg/mL | 12.3 µg/mL |  |  | 
12 | CCN(CC)CCn1nc2c([N+](=O)[O-])cc([N+](=O)[O-])c3c2c1-c1cc(OC)ccc1N3.CS(=O)(=O)O [Example 56, N,N-Diethyl-9-methoxy-3,5-dinitropyrazolo[3,4,5-kl]acridine-1(6H)-ethanamine, methanesulfonate] |  |  |  |  |  |  |  |  | MIC (Escherichia coli): 1000 µg/mL; MIC (Alcaligenes viscolactis): < 0.46 µg/mL; MIC (Bacillus cereus): 333 µg/mL; MIC (Branhamella catarrhalis): 37 µg/mL; MIC (Streptococcus pneumoniae): 12.3 µg/mL
